Laboratory results taken from US8207176B2 (Glaxo Group Limited, priority 2005, dated 2012).

System: influx of neutrophils to the lung in LPS-challenged rats
Test: Rat LPS neutrophilia model
Type: in vivo
Settings: intratracheal, LPS aerosol 100 ug/ml 15 min, lavage 4 hours later, in at least one of the range of conditions tested, significant p<0.05, nonsignificant p>0.05
Method: The effect of compounds on the influx of neutrophils to the lung in LPS-challenged rats is evaluated as follows. The test compound is suspended in one of the following solutions: 0.5% tween 80/PBS, 0.5% tween 80/saline, 10% EtOH/saline (with pH adjusted to 2.0, or 8.0 with HCl, or unadjusted), Saline @ pH 2.0, 6.5 or 8.0, 0.5% Tragacanth, 1% DMSO/20% Encapsin/Saline, or acidified 5% Tragacanth. The suspension process may be aided by the use of a glass homogenizer. For intratracheal administration, the animals are anesthetized with inhaled isoflurane and placed in a supine position, the trachea is intubated with a steel gavage needle (1.5 inch, 22 gauge, small ball) or a Penn-Century Microsprayer Aerosolizer (model IA-IB) and 200 ul of dosing solution is delivered. The animals are visually monitored during the recovery process, which typically occurs within two minutes. It is noted that the test compounds may be alternatively administered via the microsprayer in a dry powder blend with a suitable excipient, such as lactose.
Rats treated with compound or vehicle (15 min-24 hours pretreatment) are exposed to an LPS aerosol (100 ug/ml) for 15 min. Four hours later the rats are euthanized with pentobarbital (100 mg/kg, i.p.) and the airways are lavaged with 5 washes of 5 ml of phosphate buffered saline. The harvested cells are stained (Diffquick) and counted to determine total and differential cell data. […] Inhibition of neutrophil levels relative to no compound controls is calculated based on the differential counts.
The data is obtained as % inhibition using a particular concentration and pretreat time.

SMILES | inhibition of neutrophilia (neutrophil levels in lung lavage relative to no compound controls)
CCN(CC)CCCNc1nc(-c2cc(C(=O)Nc3ccccc3)ccc2C)c2ccc(=O)n(-c3c(F)cccc3F)c2n1 [Example 147, 3-[2-{[3-(diethylamino)propyl]amino}-8-(2,6-difluorophenyl)-7-oxo-7,8-dihydropyrido[2,3-d]pyrimidin-4-yl]-4-methyl-N-phenylbenzamide] | statistically nonsignificant inhibition
Cc1ccc(C(=O)Nc2nccs2)cc1-c1nc(NCCNC(C)C)nc2c1ccc(=O)n2-c1c(F)cccc1F [Example 103, 3-[8-(2,6-difluorophenyl)-2-({2-[(1-methylethyl)amino]ethyl}amino)-7-oxo-7,8-dihydropyrido[2,3-d]pyrimidin-4-yl]-4-methyl-N-1,3-thiazol-2-ylbenzamide] | statistically significant inhibition
CCCCNC(=O)c1ccc(C)c(-c2nc(N3CCC(N4CCC(C)CC4)CC3)nc3c2ccc(=O)n3-c2c(F)cccc2F)c1 [Example 167, N-butyl-3-[8-(2,6-difluorophenyl)-2-(4-methyl-1,4′-bipiperidin-1′-yl)-7-oxo-7,8-dihydropyrido[2,3-d]pyrimidin-4-yl]-4-methylbenzamide] | statistically significant inhibition
Cc1ccc(C(=O)Nc2ccc(F)cc2)cc1-c1nc(N2CCC(N)CC2)nc2c1ccc(=O)n2-c1c(F)cccc1F [Example 72] | statistically significant inhibition
CCCNC(=O)c1ccc(C)c(-c2nc(N3CCC(N4CCC(C)CC4)CC3)nc3c2ccc(=O)n3-c2c(F)cccc2F)c1 [Example 166, 3-[8-(2,6-difluorophenyl)-2-(4-methyl-1,4′-bipiperidin-1′-yl)-7-oxo-7,8-dihydropyrido[2,3-d]pyrimidin-4-yl]-4-methyl-N-propylbenzamide] | statistically significant inhibition
CNCCNc1nc(-c2cc(C(=O)Nc3ccc(F)cc3)ccc2C)c2ccc(=O)n(-c3c(F)cccc3F)c2n1 [Example 60, 3-(8-(2,6-difluorophenyl)-2-{[2-(methylamino)ethyl]amino}-7-oxo-7,8-dihydropyrido[2,3-d]pyrimidin-4-yl)-N-(4-fluorophenyl)-4-methylbenzamide] | statistically significant inhibition
Cc1ccc(C(=O)Nc2ccc(F)cc2)cc1-c1nc(N(C)CCCN(C)C)nc2c1ccc(=O)n2-c1c(F)cccc1F [Example 115, 3-{8-(2,6-difluorophenyl)-2-[[3-(dimethylamino)propyl](methyl)amino]-7-oxo-7,8-dihydropyrido[2,3-d]pyrimidin-4-yl}-N-(4-fluorophenyl)-4-methylbenzamide] | statistically nonsignificant inhibition
Cc1ccc(C(=O)Nc2nccs2)cc1-c1nc(NCCCNC(C)(C)C)nc2c1ccc(=O)n2-c1c(F)cccc1F [Example 102, 3-[8-(2,6-difluorophenyl)-2-({3-[(1,1-dimethylethyl)amino]propyl}amino)-7-oxo-7,8-dihydropyrido[2,3-d]pyrimidin-4-yl]-4-methyl-N-1,3-thiazol-2-ylbenzamide] | statistically nonsignificant inhibition
Cc1ccc(C(=O)Nc2nccs2)cc1-c1nc(N2CCC(N)CC2)nc2c1ccc(=O)n2-c1c(F)cccc1F [Example 73, 3-[2-(4-amino-1-piperidinyl)-8-(2,6-difluorophenyl)-7-oxo-7,8-dihydropyrido[2,3-d]pyrimidin-4-yl]-4-methyl-N-1,3-thiazol-2-ylbenzamide] | statistically significant inhibition
